Measured values as given in article PMC9814781, “Structure-based design of a dual-warhead covalent inhibitor of FGFR4” (Communications Chemistry, 2022).
Like-named read-outs stand apart in the source and are kept apart here.

What was measured:
[1] = In vitro plasma stability study; format: in vitro ADME; settings: for half-life at 2 µg/mL: 37°C, read-out: in vitro t1/2 (converted); for R squared / Slope: linear regression 0–10 h
Procedure: The incubation was terminated by the addition of 300 µL of acetonitrile containing 50 ng/mL roblitinib as internal standard. After vortex and centrifugation, the supernatant was analyzed using ultraperformance liquid chromatography-tandem mass spectrometry.

[2] = target: FER (Homo sapiens, UniProt P16591); assay: Kinase selectivity profiling
[3] = target: PIM1 (Homo sapiens, UniProt P11309); assay: Kinase selectivity profiling
[4] = target: PIM3 (Homo sapiens, UniProt Q86V86); assay: Kinase selectivity profiling
[5] = target: HER2 (Homo sapiens, UniProt P04626); assay: Kinase selectivity profiling
[6] = target: LYNb (Homo sapiens, UniProt P07948); assay: Kinase selectivity profiling
[7] = target: IKKε(IKBKE) (Homo sapiens, UniProt Q14164); assay: Kinase selectivity profiling
[8] = target: PAK4 (Homo sapiens, UniProt O96013); assay: Kinase selectivity profiling
[9] = target: GSK3α (Homo sapiens, UniProt P49840); assay: Kinase selectivity profiling
[10] = target: ACK (Homo sapiens, UniProt Q07912); assay: Kinase selectivity profiling
[11] = target: SRC (Homo sapiens, UniProt P12931); assay: Kinase selectivity profiling
[12] = target: CSK (Homo sapiens, UniProt P41240); assay: Kinase selectivity profiling
[13] = target: SGK (Homo sapiens, UniProt O00141); assay: Kinase selectivity profiling
[14] = target: MET (Homo sapiens, UniProt P08581); assay: Kinase selectivity profiling
[15] = target: HGK (Homo sapiens, UniProt O95819); assay: Kinase selectivity profiling
[16] = target: EPHA1 (Homo sapiens, UniProt P21709); assay: Kinase selectivity profiling
[17] = target: JAK3 (Homo sapiens, UniProt P52333); assay: Kinase selectivity profiling
[18] = target: TGFbR1 (Homo sapiens, UniProt P36897); assay: Kinase selectivity profiling
[19] = target: TYRO3 (Homo sapiens, UniProt Q06418); assay: Kinase selectivity profiling
[20] = target: ALK4 (Homo sapiens, UniProt P36896); assay: Kinase selectivity profiling
[21] = target: CDK9/CycK (Homo sapiens, UniProt P50750); assay: Kinase selectivity profiling
[22] = target: IRR (Homo sapiens, UniProt P14616); assay: Kinase selectivity profiling
[23] = target: KDR (VEGFR2) (Homo sapiens, UniProt P35968); assay: Kinase selectivity profiling
[24] = target: PDGFRβ (Homo sapiens, UniProt P09619); assay: Kinase selectivity profiling
[25] = target: CDK3/CycE1 (Homo sapiens, UniProt Q00526); assay: Kinase selectivity profiling
[26] = target: DYRK3 (Homo sapiens, UniProt O43781); assay: Kinase selectivity profiling
[27] = target: KIT (Homo sapiens, UniProt P10721); assay: Kinase selectivity profiling

Sequence of PAK4 (O96013 whole entry): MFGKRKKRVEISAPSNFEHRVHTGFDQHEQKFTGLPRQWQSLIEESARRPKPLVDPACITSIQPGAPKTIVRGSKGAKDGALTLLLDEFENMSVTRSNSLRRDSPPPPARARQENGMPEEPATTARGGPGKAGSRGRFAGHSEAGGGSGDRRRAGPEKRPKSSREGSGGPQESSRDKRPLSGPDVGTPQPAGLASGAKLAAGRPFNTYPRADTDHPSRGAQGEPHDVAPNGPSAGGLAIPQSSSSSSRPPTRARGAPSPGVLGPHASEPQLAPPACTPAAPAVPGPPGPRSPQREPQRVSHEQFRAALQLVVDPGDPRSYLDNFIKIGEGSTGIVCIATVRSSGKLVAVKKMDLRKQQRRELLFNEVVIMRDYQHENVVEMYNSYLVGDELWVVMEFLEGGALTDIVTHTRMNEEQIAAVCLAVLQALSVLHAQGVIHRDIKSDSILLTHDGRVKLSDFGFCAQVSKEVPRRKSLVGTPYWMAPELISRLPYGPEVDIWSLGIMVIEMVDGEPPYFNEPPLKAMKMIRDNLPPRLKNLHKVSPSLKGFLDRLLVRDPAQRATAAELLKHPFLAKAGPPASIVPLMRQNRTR
Sequence of TGFbR1 (P36897 34-503): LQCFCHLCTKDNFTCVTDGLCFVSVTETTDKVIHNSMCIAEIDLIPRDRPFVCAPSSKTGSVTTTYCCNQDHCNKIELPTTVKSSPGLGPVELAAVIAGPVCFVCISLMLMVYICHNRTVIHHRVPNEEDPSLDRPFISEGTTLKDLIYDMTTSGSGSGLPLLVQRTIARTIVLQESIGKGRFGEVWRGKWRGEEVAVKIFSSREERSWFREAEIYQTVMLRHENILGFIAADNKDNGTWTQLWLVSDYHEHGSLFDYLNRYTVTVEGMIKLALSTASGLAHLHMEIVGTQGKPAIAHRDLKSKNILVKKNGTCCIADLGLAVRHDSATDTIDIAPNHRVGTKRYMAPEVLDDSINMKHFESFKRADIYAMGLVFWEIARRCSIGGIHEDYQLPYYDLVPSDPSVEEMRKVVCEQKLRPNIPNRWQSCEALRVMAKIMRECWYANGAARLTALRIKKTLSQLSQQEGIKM
Sequence of JAK3 (P52333 whole entry): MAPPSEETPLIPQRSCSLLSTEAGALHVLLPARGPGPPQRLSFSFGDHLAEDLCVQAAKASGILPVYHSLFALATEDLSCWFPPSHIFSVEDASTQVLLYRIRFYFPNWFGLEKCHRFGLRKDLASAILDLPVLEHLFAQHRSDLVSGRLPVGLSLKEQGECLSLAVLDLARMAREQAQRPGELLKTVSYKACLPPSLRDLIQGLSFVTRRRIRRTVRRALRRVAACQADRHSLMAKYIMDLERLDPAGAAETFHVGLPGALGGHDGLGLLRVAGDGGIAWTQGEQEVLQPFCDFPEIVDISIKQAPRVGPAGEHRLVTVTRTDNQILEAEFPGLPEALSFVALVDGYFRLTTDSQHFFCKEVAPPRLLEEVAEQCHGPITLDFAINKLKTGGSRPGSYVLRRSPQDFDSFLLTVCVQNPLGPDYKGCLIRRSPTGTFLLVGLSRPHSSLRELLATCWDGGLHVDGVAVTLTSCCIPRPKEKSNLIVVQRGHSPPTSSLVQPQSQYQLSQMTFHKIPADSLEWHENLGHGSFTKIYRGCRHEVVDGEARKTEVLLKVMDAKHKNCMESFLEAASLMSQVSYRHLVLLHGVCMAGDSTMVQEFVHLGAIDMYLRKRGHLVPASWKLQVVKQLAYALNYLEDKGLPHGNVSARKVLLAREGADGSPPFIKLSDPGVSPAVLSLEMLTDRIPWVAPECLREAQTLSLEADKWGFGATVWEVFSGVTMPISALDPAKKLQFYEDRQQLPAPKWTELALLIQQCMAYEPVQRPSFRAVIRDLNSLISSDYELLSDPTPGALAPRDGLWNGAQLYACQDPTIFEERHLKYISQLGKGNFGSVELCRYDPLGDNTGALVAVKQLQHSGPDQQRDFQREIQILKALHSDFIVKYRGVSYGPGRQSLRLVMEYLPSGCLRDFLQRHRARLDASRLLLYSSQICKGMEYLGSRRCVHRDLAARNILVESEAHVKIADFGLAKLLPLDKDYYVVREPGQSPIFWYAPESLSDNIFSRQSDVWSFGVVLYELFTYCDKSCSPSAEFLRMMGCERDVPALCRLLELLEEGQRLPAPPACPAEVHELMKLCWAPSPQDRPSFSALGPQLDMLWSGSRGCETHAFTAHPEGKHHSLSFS
Sequence of IRR (P14616 27-1297): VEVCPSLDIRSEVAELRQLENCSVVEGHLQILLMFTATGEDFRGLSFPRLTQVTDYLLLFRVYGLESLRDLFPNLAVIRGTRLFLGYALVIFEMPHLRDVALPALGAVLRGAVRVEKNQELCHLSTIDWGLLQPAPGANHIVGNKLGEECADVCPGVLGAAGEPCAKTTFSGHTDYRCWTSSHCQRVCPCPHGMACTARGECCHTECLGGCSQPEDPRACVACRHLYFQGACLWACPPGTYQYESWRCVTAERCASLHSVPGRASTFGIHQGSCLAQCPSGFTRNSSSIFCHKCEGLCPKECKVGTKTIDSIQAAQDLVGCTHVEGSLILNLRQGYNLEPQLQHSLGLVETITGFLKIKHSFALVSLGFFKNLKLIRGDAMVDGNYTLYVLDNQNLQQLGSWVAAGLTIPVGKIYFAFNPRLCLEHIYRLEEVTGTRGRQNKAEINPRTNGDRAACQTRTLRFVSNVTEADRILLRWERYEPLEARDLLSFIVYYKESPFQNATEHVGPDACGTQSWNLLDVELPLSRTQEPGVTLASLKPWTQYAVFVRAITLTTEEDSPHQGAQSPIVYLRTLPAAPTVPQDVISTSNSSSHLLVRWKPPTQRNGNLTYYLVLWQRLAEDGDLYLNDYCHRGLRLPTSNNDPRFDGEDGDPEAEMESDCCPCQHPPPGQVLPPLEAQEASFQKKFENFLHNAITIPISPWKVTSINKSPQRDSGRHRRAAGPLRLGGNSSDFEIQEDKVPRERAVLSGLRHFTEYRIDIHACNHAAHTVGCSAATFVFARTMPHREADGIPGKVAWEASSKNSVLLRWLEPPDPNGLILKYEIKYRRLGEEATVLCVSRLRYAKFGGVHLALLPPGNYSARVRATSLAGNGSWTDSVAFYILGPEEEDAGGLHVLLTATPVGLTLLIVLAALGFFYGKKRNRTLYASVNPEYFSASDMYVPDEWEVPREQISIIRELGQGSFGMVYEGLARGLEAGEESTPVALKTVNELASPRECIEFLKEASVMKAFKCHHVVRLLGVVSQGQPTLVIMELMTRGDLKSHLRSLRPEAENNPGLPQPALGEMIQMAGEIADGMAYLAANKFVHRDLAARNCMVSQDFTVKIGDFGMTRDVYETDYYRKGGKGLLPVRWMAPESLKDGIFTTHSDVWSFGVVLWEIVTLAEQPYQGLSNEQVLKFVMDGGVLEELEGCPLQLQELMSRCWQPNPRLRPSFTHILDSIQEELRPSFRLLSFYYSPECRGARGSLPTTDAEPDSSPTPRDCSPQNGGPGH
Sequence of SGK (O00141 whole entry): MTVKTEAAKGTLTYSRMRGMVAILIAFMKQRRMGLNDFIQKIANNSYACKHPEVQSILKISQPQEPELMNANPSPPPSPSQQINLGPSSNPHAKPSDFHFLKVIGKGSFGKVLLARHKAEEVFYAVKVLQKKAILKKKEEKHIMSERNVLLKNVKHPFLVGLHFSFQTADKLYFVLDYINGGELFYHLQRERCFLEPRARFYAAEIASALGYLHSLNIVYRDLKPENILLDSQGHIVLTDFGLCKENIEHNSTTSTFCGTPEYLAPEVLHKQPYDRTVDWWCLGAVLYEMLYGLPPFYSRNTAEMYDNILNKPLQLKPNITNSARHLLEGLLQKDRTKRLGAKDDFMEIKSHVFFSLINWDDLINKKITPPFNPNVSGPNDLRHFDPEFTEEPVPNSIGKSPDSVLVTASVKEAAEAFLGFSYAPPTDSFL
Sequence of ACK (Q07912 whole entry): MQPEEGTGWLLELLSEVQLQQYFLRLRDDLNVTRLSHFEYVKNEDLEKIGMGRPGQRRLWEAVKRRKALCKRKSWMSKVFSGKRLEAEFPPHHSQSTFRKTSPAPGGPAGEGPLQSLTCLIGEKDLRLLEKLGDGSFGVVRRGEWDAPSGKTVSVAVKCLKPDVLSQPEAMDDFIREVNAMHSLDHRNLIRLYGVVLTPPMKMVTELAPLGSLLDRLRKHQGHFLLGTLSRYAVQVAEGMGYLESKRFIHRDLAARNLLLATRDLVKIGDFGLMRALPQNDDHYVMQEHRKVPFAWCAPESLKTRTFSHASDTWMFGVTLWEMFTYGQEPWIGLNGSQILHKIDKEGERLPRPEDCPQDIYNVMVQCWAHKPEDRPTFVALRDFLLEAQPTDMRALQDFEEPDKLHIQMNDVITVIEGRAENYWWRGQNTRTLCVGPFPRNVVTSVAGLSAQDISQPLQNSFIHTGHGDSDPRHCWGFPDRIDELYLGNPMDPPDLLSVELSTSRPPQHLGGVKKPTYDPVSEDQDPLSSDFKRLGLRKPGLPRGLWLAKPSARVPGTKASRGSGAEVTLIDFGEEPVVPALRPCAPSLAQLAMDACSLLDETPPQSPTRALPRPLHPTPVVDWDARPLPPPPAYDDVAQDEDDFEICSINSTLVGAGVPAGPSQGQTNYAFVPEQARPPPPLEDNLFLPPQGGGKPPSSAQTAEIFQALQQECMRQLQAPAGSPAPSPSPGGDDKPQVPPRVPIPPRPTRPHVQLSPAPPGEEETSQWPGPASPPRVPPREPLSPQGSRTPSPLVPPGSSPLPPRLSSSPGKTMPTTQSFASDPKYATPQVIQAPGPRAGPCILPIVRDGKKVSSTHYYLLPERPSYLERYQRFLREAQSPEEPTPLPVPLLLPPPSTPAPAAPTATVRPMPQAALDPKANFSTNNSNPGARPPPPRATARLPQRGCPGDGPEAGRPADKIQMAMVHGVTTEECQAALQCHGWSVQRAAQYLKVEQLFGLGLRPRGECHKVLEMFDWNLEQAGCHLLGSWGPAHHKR

Compound: C=CC(=O)Nc1ccccc1Nc1ncc2c(n1)N(CCCN1CCN(C(=O)C=C)CC1)C(=O)N(c1cc(OC)cc(OC)c1)C2 [CXF-009]
- half-life at 2 µg/mL ([1]; human plasma): 3.73 h
- R squared ([1]; human plasma): 0.9969
- Slope ([1]; human plasma): −0.1859
- half-life at 2 µg/mL ([1]; rat plasma): 4.99 h
- R squared ([1]; rat plasma): 0.9935
- Slope ([1]; rat plasma): −0.1388
- inhibition at 1 µM [2]: 37.1%
- inhibition at 1 µM [3]: 24.2%
- inhibition at 1 µM [4]: 17.5%
- inhibition at 1 µM [5]: 10.7%
- inhibition at 1 µM [6]: 7.62%
- inhibition at 1 µM [7]: 7.21%
- inhibition at 1 µM [8]: 6.5%
- inhibition at 1 µM [9]: 5.79%
- inhibition at 1 µM [10]: 4.18%
- inhibition at 1 µM [11]: 3.48%
- inhibition at 1 µM [12]: 3.29%
- inhibition at 1 µM [13]: 2.9%
- inhibition at 1 µM [14]: 2.65%
- inhibition at 1 µM [15]: 2.58%
- inhibition at 1 µM [16]: 2.15%
- inhibition at 1 µM [17]: 1.94%
- inhibition at 1 µM [18]: 1.08%
- inhibition at 1 µM [19]: 0.8%
- inhibition at 1 µM [20]: 0.23%
- inhibition at 1 µM [21]: 0.11%
- inhibition at 1 µM [22]: -3.5%
- inhibition at 1 µM [23]: -5.37%
- inhibition at 1 µM [24]: -6.88%
- inhibition at 1 µM [25]: -7.17%
- inhibition at 1 µM [26]: -12%
- inhibition at 1 µM [27]: -14.3%
